This assay deals with T1, human GCGR (Homo sapiens, UniProt P47871).
T1 construct: expressed in transfected cells; host or cells: HEK293 (hGluc-1HEK), pcDNA3.1, G418 selection
T1 sequence (P47871 26-477): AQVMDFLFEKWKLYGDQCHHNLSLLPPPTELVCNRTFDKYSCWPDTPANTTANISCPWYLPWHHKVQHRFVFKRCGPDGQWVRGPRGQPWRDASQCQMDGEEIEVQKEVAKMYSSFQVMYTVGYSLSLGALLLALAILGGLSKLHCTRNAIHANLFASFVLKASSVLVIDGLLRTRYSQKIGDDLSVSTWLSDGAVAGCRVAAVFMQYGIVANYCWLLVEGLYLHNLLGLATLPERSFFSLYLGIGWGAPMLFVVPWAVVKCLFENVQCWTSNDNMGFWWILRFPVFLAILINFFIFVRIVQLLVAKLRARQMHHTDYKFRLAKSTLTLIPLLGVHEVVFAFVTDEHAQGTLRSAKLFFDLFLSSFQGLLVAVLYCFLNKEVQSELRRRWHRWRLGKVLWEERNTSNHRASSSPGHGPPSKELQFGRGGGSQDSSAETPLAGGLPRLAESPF
Description: Cellular functional assay, cAMP readout (glucagon-stimulated cAMP, LANCE TR-FRET). Format: cell-based. The note with it: HEK293 cells stably expressing full-length human GCGR; glucagon 100 pM; IC50 converted to Ki; read-out: Inhibition of cAMP Ki.
A word on the Ki: it is the equilibrium dissociation constant of an inhibitor or competing ligand from its target. In the case of `Cc1cc(C(F)(F)F)ccc1-c1cc2cn(C(CC(C)C)c3ccc(C(=O)NCCC(=O)O)nc3)nc2cc1C` (stereo not shown) [Compound #187, 3-[[5-[3-Methyl-1-[6-methyl-5-[2-methyl-4-(trifluoromethyl)phenyl]indazol-2-yl]butyl]pyridine-2-carbonyl]amino]propanoic acid], the inhibitory constant (Ki) is 30 nM.
The result for `O=C(O)CCNC(=O)c1ccc(C(CC2CCC2)n2ncc3cc(-c4ccc(C(F)(F)F)cc4)ccc32)cn1` (stereo not shown) [compound 251] reads 650 nM; that for `CC(C)CC(c1ccc(C(=O)NCCC(=O)O)nc1)n1cc2c(C(F)(F)F)c(-c3ccc(C(F)(F)F)cc3Cl)ccc2n1` (stereo not shown) [compound 235], over 5200 nM; that for `CC(C)CC(c1ccc(C(=O)NCCC(=O)O)cc1)n1cc2cc(-c3ccc(C(C)(C)C)cc3)ccc2n1` (stereo not shown) [Compound #34, 3-(4-(1-(5-(4-(tert-butyl)phenyl)-2H-indazol-2-yl)-3-methylbutyl)benzamido)propanoic acid], 86 nM.
The value for `CCOc1c(-c2ccc(C(F)(F)F)cc2C)ccc2c1cnn2C(CC(C)C)c1ccc(C(=O)NCCC(=O)O)nc1` (stereo not shown) [Compound #197, 3-(5-(1-(4-Ethoxy-5-(2-methyl-4-(trifluoromethyl)phenyl)-1H-indazol-1-yl)-3-methylbutyl)picolinamido)propanoic acid] was 15 nM.
In the case of `Cc1cc2c(cnn2C(CC(C)C)c2ccc(C(=O)NCCC(=O)O)nc2)cc1-c1ccc(C(F)(F)F)cc1Cl` (stereo not shown) [Compound #259, 3-[[5-[1-[5-[2-Chloro-4-(trifluoromethyl)phenyl]-6-methyl-indazol-1-yl]-3-methyl-butyl]pridine-2-carbonyl]amino]propanoic acid], the Ki was determined as 37 nM.
The result for `CC(C)CC(c1ccc(C(=O)NCCC(=O)O)cc1)n1ncc2cc(-c3cccnc3)ccc21` (stereo not shown) [compound 219] reads over 5200 nM; that for `COc1c(-c2ccc(C(F)(F)F)cc2Cl)ccc2c1cnn2C(CC(C)C)c1ccc(C(=O)NCCC(=O)O)nc1` (stereo not shown) [Compound #250, 3-(5-(1-(5-(2-Chloro-4-(trifluoromethyl)phenyl)-4-methoxy-1H-indazol-1-yl)-3-methylbutyl)picolinamido)propanoic acid], 55 nM; that for `CC(C)CC(c1ccc(C(=O)NCCC(=O)O)cc1)n1cc2cc(-c3ccc4ncccc4c3)ccc2n1` (stereo not shown) [compound 121], 700 nM.
Consider `Cc1cc2c(cnn2C(CC(C)C)c2ccc(C(=O)NCCC(=O)O)cc2)cc1-c1cc2ccccc2s1` (stereo not shown) [Compound #174, 3-[[4-[1-[5-(Benzothiophen-2-yl)-6-methyl-indazol-1-yl]-3-methyl-butyl]benzoyl]amino]propanoic acid], for which the Ki is 190 nM.
The value for `CCCCCC(c1ccc(C(=O)NCCC(=O)O)cc1)n1ncc2cc(-c3ccc(C(F)(F)F)cc3)ccc21` (stereo not shown) [compound 89] was 130 nM.
For the compound `O=C(O)CCNC(=O)c1ccc(C(CCC(F)(F)F)n2ncc3cc(-c4ccc(C(F)(F)F)c(Cl)c4)ccc32)cc1` (stereo not shown) [Compound #111, 3-[[4-[1-[5-[3-Chloro-4-(trifluoromethyl)phenyl]indazol-1-yl]-4,4,4-trifluorobutyl]benzoyl]amino]propanoic acid], the inhibition constant (Ki) is over 1300 nM.
Take `Cc1ccc2sc(-c3ccc4nn(C(CC(C)C)c5ccc(C(=O)NCCC(=O)O)cc5)cc4c3)cc2c1` (stereo not shown) [compound 28]: the Ki turned out to be 260 nM.
The value for `CCCC(c1ccc(C(=O)NCCC(=O)O)cc1)n1ncc2cc(-c3ccc(C(C)(C)C)cc3)ccc21` (stereo not shown) [Compound #56, 3-(4-(1-(5-(4-(tert-Butyl)phenyl)-1H-indazol-1-yl)butyl)benzamido)propanoic acid] was 650 nM.
The result for `Cc1cc(C(F)(F)F)ccc1-c1cc2cn(C(CC(C)C)c3ccc(C(=O)NCCC(=O)O)cc3)nc2cc1C` (stereo not shown) [Compound #54, 3-[[4-[3-Methyl-1-[6-methyl-5-[2-methyl-4-(trifluoromethyl)phenyl]indazol-2-yl]butyl]benzoyl]amino]propanoic acid] reads 19 nM; that for `COc1ccc2sc(-c3ccc4c(cnn4C(CC(C)C)c4ccc(C(=O)NCCC(=O)O)cc4)c3)cc2c1` (stereo not shown) [compound 132], 230 nM.
The result for `Cc1c(-c2ccc(C(F)(F)F)cc2Cl)ccc2c1cnn2C(CC(C)C)c1ccc(C(=O)NCCC(=O)O)cc1` (stereo not shown) [Compound #55, 3-(4-(1-(5-(2-Chloro-4-(trifluoromethyl)phenyl)-4-methyl-1H-indazol-1-yl)-3-methylbutyl)benzamido)propanoic acid] reads 115 nM; that for `CC(C)CC(c1ccc(C(=O)NCCC(=O)O)cc1)n1ncc2cc(-c3ccc(F)cc3)ccc21` (stereo not shown) [Compound #5], 600 nM.
Regarding `CC(C)C[C@H](c1ccc(C(=O)NCCC(=O)O)cc1)n1ncc2cc(-c3ccc(C(F)(F)F)cc3Cl)ccc21` [Compound #85, 3-[[4-[(1R)-1-[5-[2-Chloro-4-(trifluoromethyl)phenyl]indazol-1-yl]-3-methyl-butyl]benzoyl]amino]propanoic acid], the inhibition constant Ki was determined as 1270 nM.
`O=C(O)CCNC(=O)c1ccc(C(CCC2CCC2)n2ncc3cc(-c4ccc(C(F)(F)F)cc4)ccc32)cc1` (stereo not shown) [Compound #239, 3-(4-(3-Cyclobutyl-1-(5-(4-(trifluoromethyl)phenyl)-1H-indazol-1-yl)propyl)benzamido)propanoic acid]: the inhibition constant Ki was determined as 260 nM.
Consider `CCCCCCC(c1ccc(C(=O)NCCC(=O)O)cc1)n1cc2cc(-c3ccc(C(F)(F)F)cc3)ccc2n1` (stereo not shown) [Compound #26], for which the Ki came to 45 nM.
The value for `Cc1cc(C(F)(F)F)ccc1-c1cc2cnn(C(CC(C)C)c3ccc(C(=O)NCCC(=O)O)nc3)c2cc1C` (stereo not shown) [Compound #214, 3-[[5-[3-Methyl-1-[6-methyl-5-[2-methyl-4-(trifluoromethyl)phenyl]indazol-1-yl]butyl]pyridine-2-carbonyl]amino]propanoic acid] was 32 nM; that for `CC(c1ccc(C(=O)NCCC(=O)O)cc1)n1cc2cc(-c3ccc(C(C)(C)C)cc3)ccc2n1` (stereo not shown) [Compound #161, 3-(4-(1-(5-(4-(tert-butyl)phenyl)-2H-indazol-2-yl)ethyl)benzamido) propanoic acid] was 3200 nM.
For the compound `O=C(O)CCNC(=O)c1ccc(C(CCC(F)(F)C(F)(F)F)n2ncc3cc(-c4ccc(C(F)(F)F)cc4)ccc32)cc1` (stereo not shown) [compound 100], the inhibition constant Ki is 550 nM.
The result for `Cc1cc(Cl)ccc1-c1ccc2c(cnn2C(CC(C)C)c2ccc(C(=O)NCCC(=O)O)cc2)c1` (stereo not shown) [Compound #39, 3-(4-(1-(5-(4-Chloro-2-methylphenyl)-1H-indazol-1-yl)-3-methylbutyl)benzamido)propanoic acid] reads 210 nM; that for `Cc1cc(C(F)(F)F)ccc1-c1ccc2nn(C(CC(C)C)c3ccc(C(=O)NCCC(=O)O)cc3)cc2c1C` (stereo not shown) [Compound #63, 3-(4-(3-Methyl-1-(4-methyl-5-(2-methyl-4-(trifluoromethyl)phenyl)-2H-indazol-2-yl)butyl)benzamido)propanoic acid], 28 nM; that for `CC(C)CC(c1ccc(C(=O)NCCC(=O)O)cc1)n1ncc2c(Cl)c(-c3ccc(C(F)(F)F)cc3Cl)ccc21` (stereo not shown) [Compound #141, 3-(4-(1-(4-Chloro-5-(2-chloro-4-(trifluoromethyl)phenyl)-1H-indazol-1-yl)-3-methylbutyl)benzamido)propanoic acid], 115 nM.
As for `Cc1cc(C(F)(F)F)ccc1-c1cc2cnn(C(CC(C)C)c3ccc(C(=O)NCCC(=O)O)cc3)c2cc1Cl` (stereo not shown) [Compound #261, 3-[[4-[1-[6-Chloro-5-[2-methyl-4-(trifluoromethyl)phenyl]indazol-1-yl]-3-methyl-butyl]benzoyl]amino]propanoic acid], the inhibition constant (Ki) was 105 nM.
The value for `CC(C)(C)c1ccc(-c2ccc3c(cnn3C(CC3CCCCC3)c3ccc(C(=O)NCCC(=O)O)cc3)c2)cc1` (stereo not shown) [Compound #24, 3-(4-(1-(5-(4-(tert-Butyl)phenyl)-1H-indazol-1-yl)-2-cyclohexylethyl)benzamido)propanoic acid] was 114 nM; that for `Cc1cc(C(F)(F)F)ccc1-c1ccc2nn(C(CC(C)C)c3ccc(C(=O)NCCC(=O)O)cc3)cc2c1` (stereo not shown) [Compound #189, 3-(4-(3-Methyl-1-(5-(2-methyl-4-(trifluoromethyl)phenyl)-2H-indazol-2-yl)butyl)benzamido)propanoic acid] was 199 nM; that for `CCOc1c(-c2ccc(C(F)(F)F)cc2C)ccc2nn(C(CC(C)C)c3ccc(C(=O)NCCC(=O)O)nc3)cc12` (stereo not shown) [Compound #207, 3-(5-(1-(4-Ethoxy-5-(2-methyl-4-(trifluoromethyl)phenyl)-2H-indazol-2-yl)-3-methylbutyl)picolinamido)propanoic acid] was 17 nM.
The result for `Cc1cc(C(F)(F)F)ccc1-c1ccc2c(cnn2C(CC(C)C)c2ccc(C(=O)NCCC(=O)O)cc2)c1C` (stereo not shown) [Compound #21, 3-(4-(3-Methyl-1-(4-methyl-5-(2-methyl-4-(trifluoromethyl)phenyl)-1H-indazol-1-yl)butyl)benzamido)propanoic acid] reads 92 nM; that for `CCCCCCC(c1ccc(C(=O)NCCC(=O)O)cc1)n1ncc2cc(-c3ccc(Cl)cc3C)ccc21` (stereo not shown) [compound 245], 210 nM.
With `O=C(O)CCNC(=O)c1ccc(C(CCC(F)(F)C(F)(F)F)n2cc3cc(-c4ccc(C(F)(F)F)cc4)ccc3n2)cc1` (stereo not shown) [compound 65], the inhibition constant Ki came to 240 nM.
The value for `COc1c(-c2ccc(C(F)(F)F)cc2Cl)ccc2c1cnn2C(CC(C)C)c1ccc(C(=O)NCCC(=O)O)cc1` (stereo not shown) [Compound #103, 3-(4-(1-(5-(2-Chloro-4-(trifluoromethyl)phenyl)-4-methoxy-1H-indazol-1-yl)-3-methylbutyl)benzamido)propanoic acid] was 100 nM.
In the case of `O=C(O)CCNC(=O)c1ccc(C(C2CCCCC2)n2cc3cc(-c4ccc(C(F)(F)F)cc4)ccc3n2)cc1` (stereo not shown) [compound 136], the Ki came to 135 nM.
The result for `CC(C)CC(c1ccc(C(=O)NCCC(=O)O)cc1)n1ncc2c(Cl)c(-c3ccc(C(F)(F)F)cc3)ccc21` (stereo not shown) [Compound #67, 3-(4-(1-(4-Chloro-5-(4-(trifluoromethyl)phenyl)-1H-indazol-1-yl)-3-methylbutyl)benzamido)propanoic acid] reads 245 nM.

The values above are taken from patent US10000473B2, “Indazole derivatives useful as glucagon receptor antagonists” (Janssen Pharmaceutica NV, priority 2016, dated 2018).
